Source: patent US20260092071A1, “COMPOUNDS AND COMPOSITIONS AS SMARCA2/4 DEGRADERS AND USES THEREOF” (REGENTS OF THE UNIVERSITY OF MICHIGAN, priority 2022, published 2026)

Tests used:
SMARCA4 = SMARCA4 (Homo sapiens, UniProt P51532); assay: HiBiT assay for protein degradation, Hela SMARCA4-HiBiT cells (A series); type: cell-based; parameters: fuse HiBiT to the carboxy terminus of SMARCA2 (Promega CS302365) or SMARCA4 (Promega CS3023225); host or cells: HeLa (CRISPR/Cas9 HiBiT knock-in); settings: Hela SMARCA4-HiBiT cells, 24 hours treatment; for DC50: read-out: SMARC A4 Hela HiBit DC50; for Dmax: read-out: SMARC A4 Hela HiBit Dmax
How it was run: (§1)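 HeLa cells engineered by CRISPR/Cas9 to carry a HiBiT tag fused to the C-terminus of SMARCA4 (Promega CS3023225) were grown in DMEM supplemented with FBS and penicillin-streptomycin. After compound exposure, remaining SMARCA4 protein was quantified using the Nano-Glo® HiBiT Lytic Detection Assay (Promega N3050), and curves were fitted in GraphPad Prism.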

SMARCA2 = SMARCA2 (Homo sapiens, UniProt P51531); assay: HiBiT assay for protein degradation, Hela SMARCA2-HiBiT cells (A series); type: cell-based; parameters: Hela cells were genetically modified via CRISPR/Cas9 to fuse HiBiT to the carboxy terminus of SMARCA2; host or cells: HeLa (CRISPR/Cas9 HiBiT knock-in); settings: Hela SMARCA2-HiBiT cells, 24 hours treatment; for DC50: read-out: SMARC A2 Hela HiBit DC50; for Dmax: read-out: SMARC A2 Hela HiBit Dmax (%);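 for SMARC A2 Hela HiBit Dmax (%): 24 h compound treatment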
How it was run: as §1, with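 “SMARCA2” for “SMARCA4”, “CS302365)” for “CS3023225)”, “treatment,” for “compound exposure,”, “with” for “using”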

Sequence of SMARCA4 (P51532 whole entry, the tested form may be a part): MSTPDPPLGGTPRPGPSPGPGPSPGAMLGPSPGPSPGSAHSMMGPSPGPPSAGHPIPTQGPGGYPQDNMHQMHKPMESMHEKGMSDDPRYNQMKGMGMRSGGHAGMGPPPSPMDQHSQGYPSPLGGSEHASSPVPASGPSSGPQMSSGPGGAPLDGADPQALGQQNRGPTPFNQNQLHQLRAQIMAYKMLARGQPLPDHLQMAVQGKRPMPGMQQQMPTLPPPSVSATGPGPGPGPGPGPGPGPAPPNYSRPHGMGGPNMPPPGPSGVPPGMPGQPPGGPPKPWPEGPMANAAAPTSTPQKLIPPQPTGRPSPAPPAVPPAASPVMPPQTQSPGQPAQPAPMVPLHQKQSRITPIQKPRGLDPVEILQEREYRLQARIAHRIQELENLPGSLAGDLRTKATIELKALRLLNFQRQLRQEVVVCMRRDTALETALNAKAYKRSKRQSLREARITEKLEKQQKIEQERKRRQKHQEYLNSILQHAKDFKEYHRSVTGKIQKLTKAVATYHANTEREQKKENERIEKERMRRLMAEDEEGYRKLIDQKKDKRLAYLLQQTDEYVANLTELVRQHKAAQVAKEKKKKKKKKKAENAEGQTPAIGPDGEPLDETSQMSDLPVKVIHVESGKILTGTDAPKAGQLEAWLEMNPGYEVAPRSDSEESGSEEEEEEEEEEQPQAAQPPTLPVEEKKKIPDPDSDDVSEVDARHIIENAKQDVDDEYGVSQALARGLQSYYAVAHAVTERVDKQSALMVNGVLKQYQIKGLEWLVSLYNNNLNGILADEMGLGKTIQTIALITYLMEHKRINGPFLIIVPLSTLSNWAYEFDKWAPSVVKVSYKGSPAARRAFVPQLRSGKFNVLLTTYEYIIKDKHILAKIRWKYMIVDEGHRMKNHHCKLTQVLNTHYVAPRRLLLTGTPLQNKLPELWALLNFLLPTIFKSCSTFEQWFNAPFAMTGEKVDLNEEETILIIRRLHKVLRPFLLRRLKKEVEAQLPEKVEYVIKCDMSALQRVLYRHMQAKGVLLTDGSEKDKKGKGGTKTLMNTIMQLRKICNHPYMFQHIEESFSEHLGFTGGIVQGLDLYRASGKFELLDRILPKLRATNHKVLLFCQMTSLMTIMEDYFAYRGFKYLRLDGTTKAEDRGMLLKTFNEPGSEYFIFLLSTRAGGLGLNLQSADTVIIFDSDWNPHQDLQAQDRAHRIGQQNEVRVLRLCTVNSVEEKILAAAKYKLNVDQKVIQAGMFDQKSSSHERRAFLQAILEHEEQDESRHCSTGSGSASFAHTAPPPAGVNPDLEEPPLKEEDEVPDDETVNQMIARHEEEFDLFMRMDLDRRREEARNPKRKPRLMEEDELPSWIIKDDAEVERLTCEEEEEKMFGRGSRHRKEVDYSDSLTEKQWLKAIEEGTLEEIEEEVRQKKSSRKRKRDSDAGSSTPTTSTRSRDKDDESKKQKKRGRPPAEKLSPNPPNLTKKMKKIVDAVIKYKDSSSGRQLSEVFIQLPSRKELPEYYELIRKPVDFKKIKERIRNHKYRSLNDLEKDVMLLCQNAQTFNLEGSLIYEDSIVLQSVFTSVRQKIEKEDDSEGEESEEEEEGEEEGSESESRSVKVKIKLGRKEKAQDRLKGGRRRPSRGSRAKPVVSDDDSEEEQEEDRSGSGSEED
Sequence of SMARCA2 (P51531 whole entry): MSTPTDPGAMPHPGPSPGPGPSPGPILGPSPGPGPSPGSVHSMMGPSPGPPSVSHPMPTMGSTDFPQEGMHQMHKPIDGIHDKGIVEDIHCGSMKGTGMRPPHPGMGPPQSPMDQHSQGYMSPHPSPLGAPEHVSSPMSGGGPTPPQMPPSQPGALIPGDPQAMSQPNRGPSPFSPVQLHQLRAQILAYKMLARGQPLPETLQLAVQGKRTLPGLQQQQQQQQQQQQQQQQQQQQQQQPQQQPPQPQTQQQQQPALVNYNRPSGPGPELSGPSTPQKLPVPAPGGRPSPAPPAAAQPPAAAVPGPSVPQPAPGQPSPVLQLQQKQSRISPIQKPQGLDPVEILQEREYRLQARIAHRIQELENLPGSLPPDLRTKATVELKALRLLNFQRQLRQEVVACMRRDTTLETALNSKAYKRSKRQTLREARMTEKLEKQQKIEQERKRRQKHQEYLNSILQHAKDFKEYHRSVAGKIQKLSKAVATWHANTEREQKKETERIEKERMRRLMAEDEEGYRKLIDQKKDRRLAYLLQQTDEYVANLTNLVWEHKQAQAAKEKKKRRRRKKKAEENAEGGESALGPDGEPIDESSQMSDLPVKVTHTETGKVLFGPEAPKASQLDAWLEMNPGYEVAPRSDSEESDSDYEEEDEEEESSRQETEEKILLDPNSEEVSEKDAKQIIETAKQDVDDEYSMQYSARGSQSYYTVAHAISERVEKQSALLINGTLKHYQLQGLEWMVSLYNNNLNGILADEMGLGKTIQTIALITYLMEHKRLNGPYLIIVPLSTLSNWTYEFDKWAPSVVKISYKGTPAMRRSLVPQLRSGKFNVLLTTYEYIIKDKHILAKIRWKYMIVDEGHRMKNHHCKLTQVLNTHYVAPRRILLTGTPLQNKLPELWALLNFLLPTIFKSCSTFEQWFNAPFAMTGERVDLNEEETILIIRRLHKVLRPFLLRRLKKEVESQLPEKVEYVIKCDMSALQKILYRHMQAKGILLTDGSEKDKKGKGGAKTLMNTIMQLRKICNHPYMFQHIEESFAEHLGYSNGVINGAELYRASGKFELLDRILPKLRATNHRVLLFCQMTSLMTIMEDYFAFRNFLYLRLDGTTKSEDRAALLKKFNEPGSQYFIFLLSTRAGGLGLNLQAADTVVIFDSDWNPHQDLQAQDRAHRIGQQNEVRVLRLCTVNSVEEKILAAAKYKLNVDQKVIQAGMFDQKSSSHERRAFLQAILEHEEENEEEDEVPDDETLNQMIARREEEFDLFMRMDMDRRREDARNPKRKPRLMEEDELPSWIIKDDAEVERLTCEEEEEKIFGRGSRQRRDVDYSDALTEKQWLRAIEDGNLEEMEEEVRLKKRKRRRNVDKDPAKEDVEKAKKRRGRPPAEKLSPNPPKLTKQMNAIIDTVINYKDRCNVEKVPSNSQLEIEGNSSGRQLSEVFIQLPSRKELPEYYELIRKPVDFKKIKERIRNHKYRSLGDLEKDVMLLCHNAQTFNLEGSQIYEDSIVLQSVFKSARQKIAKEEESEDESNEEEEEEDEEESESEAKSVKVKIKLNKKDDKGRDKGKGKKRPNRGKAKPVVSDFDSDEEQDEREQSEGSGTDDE

| Structure (SMILES) | DC50 (SMARCA4) | Dmax (SMARCA4) | DC50 (SMARCA2) | Dmax (SMARCA2) |
| --- | --- | --- | --- | --- |
| COCCOCCOCCOC[C@H](NC(=O)[C@@H]1C[C@@H](O)CN1C(=O)[C@@H](n1cc([C@H]2CC[C@H](CN3CCC(c4ccc5c(c4)-n4c(nc(=O)c6c(Cl)cccc64)C54CCCCC4)CC3)CC2)nn1)C(C)(C)C)c1ccc(-c2scnc2C)cc1 [Compound A148, (2S,4R)-1-((S)-2-(4-((1r,4S)-4-((4-(4′-chloro-5′-oxo-5′H-spiro[cyclohexane-1,7′-indolo[1,2-a]quinazolin]-10′-yl)piperidin-1-yl)methyl)cyclohexyl)-1H-1,2,3-triazol-1-yl)-3,3-dimethylbutanoyl)-4-hydroxy-N—((R)-13-(4-(4-methylthiazol-5-yl)phenyl)-2,5,8,11-tetraoxatridecan-13-yl)pyrrolidine-2-carboxamide] | > 1000 nM | 50 to 69% | < 10 nM | > 90% |
| COCCOCCOCCOCCOC[C@H](NC(=O)[C@@H]1C[C@@H](O)CN1C(=O)[C@@H](n1cc([C@H]2CC[C@H](CN3CCC(c4ccc5c(c4)-n4c(nc(=O)c6c(Cl)cccc64)C54CCCCC4)CC3)CC2)nn1)C(C)(C)C)c1ccc(-c2scnc2C)cc1 [Compound A149, (2S,4R)-1-((S)-2-(4-((1r,4S)-4-((4-(4′-chloro-5′-oxo-5′H-spiro[cyclohexane-1,7′-indolo[1,2-a]quinazolin]-10′-yl)piperidin-1-yl)methyl)cyclohexyl)-1H-1,2,3-triazol-1-yl)-3,3-dimethylbutanoyl)-4-hydroxy-N—((R)-16-(4-(4-methylthiazol-5-yl)phenyl)-2,5,8,11,14-pentaoxahexadecan-16-yl)pyrrolidine-2-carboxamide] | > 1000 nM | 50 to 69% | < 10 nM | > 90% |
| COCCOCCOCCOC[C@H](NC(=O)[C@@H]1C[C@@H](O)CN1C(=O)[C@@H](n1cc([C@H]2CC[C@H](CN3CCC(c4ccc5c(c4)-n4c(nc(=O)c6c(Cl)cccc64)C5(C)C)CC3)CC2)nn1)C(C)(C)C)c1ccc(-c2scnc2C)cc1 [Compound A150, (2S,4R)-1-((S)-2-(4-((1r,4S)-4-((4-(4-chloro-7,7-dimethyl-5-oxo-5,7-dihydroindolo[1,2-a]quinazolin-10-yl)piperidin-1-yl)methyl)cyclohexyl)-1H-1,2,3-triazol-1-yl)-3,3-dimethylbutanoyl)-4-hydroxy-N—((R)-13-(4-(4-methylthiazol-5-yl)phenyl)-2,5,8,11-tetraoxatridecan-13-yl)pyrrolidine-2-carboxamide] | > 1000 nM | < 50% | < 10 nM | > 90% |
| COCCOCCOCCOCCOC[C@H](NC(=O)[C@@H]1C[C@@H](O)CN1C(=O)[C@@H](n1cc([C@H]2CC[C@H](CN3CCC(c4ccc5c(c4)-n4c(nc(=O)c6c(Cl)cccc64)C5(C)C)CC3)CC2)nn1)C(C)(C)C)c1ccc(-c2scnc2C)cc1 [Compound A151, (2S,4R)-1-((S)-2-(4-((1r,4S)-4-((4-(4-chloro-7,7-dimethyl-5-oxo-5,7-dihydroindolo[1,2-a]quinazolin-10-yl)piperidin-1-yl)methyl)cyclohexyl)-1H-1,2,3-triazol-1-yl)-3,3-dimethylbutanoyl)-4-hydroxy-N—((R)-16-(4-(4-methylthiazol-5-yl)phenyl)-2,5,8,11,14-pentaoxahexadecan-16-yl)pyrrolidine-2-carboxamide] | > 1000 nM | < 50% | < 10 nM | > 90% |
| COC(=O)COC[C@H](NC(=O)[C@@H]1C[C@@H](O)CN1C(=O)[C@@H](n1cc([C@H]2CC[C@H](CN3CCC(c4ccc5c(c4)-n4c(nc(=O)c6c(Cl)cccc64)C54CCCCC4)CC3)CC2)nn1)C(C)(C)C)c1ccc(-c2scnc2C)cc1 [Compound A152, methyl 2-((R)-2-((2S,4R)-1-((S)-2-(4-((1r,4S)-4-((4-(4′-chloro-5′-oxo-5′H-spiro[cyclohexane-1,7′-indolo[1,2-a]quinazolin]-10′-yl)piperidin-1-yl)methyl)cyclohexyl)-1H-1,2,3-triazol-1-yl)-3,3-dimethylbutanoyl)-4-hydroxypyrrolidine-2-carboxamido)-2-(4-(4-methylthiazol-5-yl)phenyl)ethoxy)acetate] | > 1000 nM | 50 to 69% | < 10 nM | > 90% |
| COC(=O)C1CCN(C[C@H](NC(=O)[C@@H]2C[C@@H](O)CN2C(=O)[C@@H](n2cc([C@H]3CC[C@H](CN4CCC(c5ccc6c(c5)-n5c(nc(=O)c7c(Cl)cccc75)C65CCCCC5)CC4)CC3)nn2)C(C)(C)C)c2ccc(-c3scnc3C)cc2)CC1 [Compound A153, methyl 1-((R)-2-((2S,4R)-1-((S)-2-(4-((1r,4S)-4-((4-(4′-chloro-5′-oxo-5′H-spiro[cyclohexane-1,7′-indolo[1,2-a]quinazolin]-10′-yl)piperidin-1-yl)methyl)cyclohexyl)-1H-1,2,3-triazol-1-yl)-3,3-dimethylbutanoyl)-4-hydroxypyrrolidine-2-carboxamido)-2-(4-(4-methylthiazol-5-yl)phenyl)ethyl)piperidine-4-carboxylate] | > 1000 nM | 50 to 69% | < 10 nM | > 90% |
| COC(=O)C1CN(C[C@H](NC(=O)[C@@H]2C[C@@H](O)CN2C(=O)[C@@H](n2cc([C@H]3CC[C@H](CN4CCC(c5ccc6c(c5)-n5c(nc(=O)c7c(Cl)cccc75)C65CCCCC5)CC4)CC3)nn2)C(C)(C)C)c2ccc(-c3scnc3C)cc2)C1 [Compound A154, methyl 1-((R)-2-((2S,4R)-1-((S)-2-(4-((1r,4S)-4-((4-(4′-chloro-5′-oxo-5′H-spiro[cyclohexane-1,7′-indolo[1,2-a]quinazolin]-10′-yl)piperidin-1-yl)methyl)cyclohexyl)-1H-1,2,3-triazol-1-yl)-3,3-dimethylbutanoyl)-4-hydroxypyrrolidine-2-carboxamido)-2-(4-(4-methylthiazol-5-yl)phenyl)ethyl) azetidine-3-carboxylate] | > 1000 nM | < 50% | < 10 nM | > 90% |
| Cc1ncsc1-c1ccc([C@H](COCC(=O)O)NC(=O)[C@@H]2C[C@@H](O)CN2C(=O)[C@@H](n2cc([C@H]3CC[C@H](CN4CCC(c5ccc6c(c5)-n5c(nc(=O)c7c(Cl)cccc75)C65CCCCC5)CC4)CC3)nn2)C(C)(C)C)cc1 [Compound A155, 2-((R)-2-((2S,4R)-1-((S)-2-(4-((1r,4S)-4-((4-(4′-chloro-5′-oxo-5′H-spiro[cyclohexane-1,7′-indolo[1,2-a]quinazolin]-10′-yl)piperidin-1-yl)methyl)cyclohexyl)-1H-1,2,3-triazol-1-yl)-3,3-dimethylbutanoyl)-4-hydroxypyrrolidine-2-carboxamido)-2-(4-(4-methylthiazol-5-yl)phenyl)ethoxy) acetic acid] | > 1000 nM | < 50% | 100 to 1000 nM | 70 to 90% |
| Cc1ncsc1-c1ccc([C@H](CN2CCC(C(=O)O)CC2)NC(=O)[C@@H]2C[C@@H](O)CN2C(=O)[C@@H](n2cc([C@H]3CC[C@H](CN4CCC(c5ccc6c(c5)-n5c(nc(=O)c7c(Cl)cccc75)C65CCCCC5)CC4)CC3)nn2)C(C)(C)C)cc1 [Compound A156, 1-((R)-2-((2S,4R)-1-((S)-2-(4-((1r,4S)-4-((4-(4′-chloro-5′-oxo-5′H-spiro[cyclohexane-1,7′-indolo[1,2-a]quinazolin]-10′-yl)piperidin-1-yl)methyl)cyclohexyl)-1H-1,2,3-triazol-1-yl)-3,3-dimethylbutanoyl)-4-hydroxypyrrolidine-2-carboxamido)-2-(4-(4-methylthiazol-5-yl)phenyl)ethyl)piperidine-4-carboxylic acid] | > 1000 nM | < 50% | 100 to 1000 nM | 70 to 90% |
| Cc1ncsc1-c1ccc([C@H](CN2CC(C(=O)O)C2)NC(=O)[C@@H]2C[C@@H](O)CN2C(=O)[C@@H](n2cc([C@H]3CC[C@H](CN4CCC(c5ccc6c(c5)-n5c(nc(=O)c7c(Cl)cccc75)C65CCCCC5)CC4)CC3)nn2)C(C)(C)C)cc1 [Compound A157, 1-((R)-2-((2S,4R)-1-((S)-2-(4-((1r,4S)-4-((4-(4′-chloro-5′-oxo-5′H-spiro[cyclohexane-1,7′-indolo[1,2-a]quinazolin]-10′-yl)piperidin-1-yl)methyl)cyclohexyl)-1H-1,2,3-triazol-1-yl)-3,3-dimethylbutanoyl)-4-hydroxypyrrolidine-2-carboxamido)-2-(4-(4-methylthiazol-5-yl)phenyl)ethyl) azetidine-3-carboxylic acid] | > 1000 nM | < 50% | 100 to 1000 nM | 70 to 90% |
